Source: patent US6686371B2, “Non-steroidal, tetracylic compounds for estrogen-related treatments” (Akzo Nobel N.V., priority 2000, dated 2004)

Tests used:
[1] = molecular target: T1, human estrogen receptor β receptor (hERβ) (Homo sapiens, UniProt Q92731); assay: transactivation assay, estrogenic activity, recombinant CHO cells co-transfected with hERβ, rat oxytocin promoter and luciferase reporter; type: cell-based; conditions: for ERβ Transactivation (Potency Transactivation (ERβ)): potency % relative to 17β-estradiol, CHO cells, hERβ, luciferase reporter; for β/α ratio Transactivation: ratio of transactivation potency hERβ over hERα
T1 construct: expressed in transfected cells; host or cells: Chinese hamster ovary (CHO) cells, stably co-transfected with hERβ, rat oxytocin promoter and luciferase reporter
Protocol: (§1) Compounds are tested for their estrogen receptor activity in a binding assay and in a transactivation assay.
The estrogenic and antiestrogenic activity of compounds is determined in an in vitro bioassay with recombinant Chinese hamster ovary (CHO) cells stably co-transfected with the human estrogen receptor α (hERα) or β receptor (hERβ), the rat oxytocin promoter (RO) and the luciferase reporter gene (LUC). The estrogenic activity (potency ratio) of a test compound to stimulate the transactivation of the enzyme luciferase mediated via the estrogen receptors hERα or hERβ is compared with the standard estrogen estradiol. The antiestrogenic activity (potency ratio) of a test compound to inhibit the transactivation of the enzyme luciferase mediated via the estrogen receptors hERα or hERβ by the estrogen estradiol is compared with the standard ICI 164.384 (=(7α,17β)-N-butyl-3,17-dihydroxy-N-methylestra-1,3,5(10)-triene-7-undecanamide).

[2] = molecular target: T1, human estrogen receptor β receptor (hERβ); assay: competitive binding to cytoplasmic human estrogen receptor β from recombinant CHO cells; conditions: % relative to 17β-estradiol, cytosol of recombinant CHO cells; for ERβ Binding (Potency Binding (ERβ)): Table 1; for Binding ERβ: Table 2
Protocol: as §1
(§2) Determination of competitive binding to cytoplasmic human estrogen receptor α or β from recombinant CHO cells is used to estimate the relative affinity (potency ratio) of a test compound for estrogen receptors present in the cytosol of recombinant Chinese hamster ovary (CHO) cells, stably transfected with the human estrogen receptor α (hERα) or β receptor (hERβ), as compared with estradiol (E2).

[3] = molecular target: T2, human estrogen receptor α (hERα) (Homo sapiens, UniProt P03372); assay: competitive binding to cytoplasmic human estrogen receptor α from recombinant CHO cells; conditions: % relative to 17β-estradiol; cytosol of recombinant CHO cells; Table 2
T2 construct: expressed in transfected cells; host or cells: cytosol of recombinant Chinese hamster ovary (CHO) cells stably transfected with hERα
T2 sequence (P03372 1-595): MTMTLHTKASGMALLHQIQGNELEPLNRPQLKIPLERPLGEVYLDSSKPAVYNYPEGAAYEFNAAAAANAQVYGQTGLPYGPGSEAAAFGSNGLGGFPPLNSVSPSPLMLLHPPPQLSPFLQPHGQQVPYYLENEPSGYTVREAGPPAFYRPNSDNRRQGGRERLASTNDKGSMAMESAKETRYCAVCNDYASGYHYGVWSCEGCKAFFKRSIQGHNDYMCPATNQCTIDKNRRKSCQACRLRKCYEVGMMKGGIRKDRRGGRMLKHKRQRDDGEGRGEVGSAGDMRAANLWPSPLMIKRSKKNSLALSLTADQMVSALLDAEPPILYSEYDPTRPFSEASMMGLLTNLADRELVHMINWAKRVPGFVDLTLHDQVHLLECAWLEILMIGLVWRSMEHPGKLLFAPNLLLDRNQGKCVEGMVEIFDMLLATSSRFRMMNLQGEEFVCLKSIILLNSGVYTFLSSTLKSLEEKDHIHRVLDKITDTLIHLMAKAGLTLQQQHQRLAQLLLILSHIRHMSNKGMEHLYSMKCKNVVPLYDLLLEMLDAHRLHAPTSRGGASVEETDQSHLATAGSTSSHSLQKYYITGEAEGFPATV
Protocol: as §1, §2

T1 sequence (Q92731 whole entry): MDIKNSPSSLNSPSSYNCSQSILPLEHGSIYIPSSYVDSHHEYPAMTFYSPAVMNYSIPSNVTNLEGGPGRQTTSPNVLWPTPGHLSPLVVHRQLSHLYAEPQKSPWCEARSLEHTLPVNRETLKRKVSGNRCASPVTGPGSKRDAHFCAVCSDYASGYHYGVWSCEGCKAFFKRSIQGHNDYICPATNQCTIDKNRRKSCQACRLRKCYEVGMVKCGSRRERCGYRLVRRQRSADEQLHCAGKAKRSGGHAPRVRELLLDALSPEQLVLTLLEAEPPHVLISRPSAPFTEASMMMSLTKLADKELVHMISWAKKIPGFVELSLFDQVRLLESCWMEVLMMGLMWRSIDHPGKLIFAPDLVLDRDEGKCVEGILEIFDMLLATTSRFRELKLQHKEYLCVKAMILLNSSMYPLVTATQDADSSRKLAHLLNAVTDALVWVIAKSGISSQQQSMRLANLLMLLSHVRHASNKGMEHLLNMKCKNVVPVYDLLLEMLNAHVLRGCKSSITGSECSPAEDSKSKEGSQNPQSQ

ERβ Transactivation (Potency Transactivation (ERβ)) [1]	β/α ratio Transactivation [1]	ERβ Binding (Potency Binding (ERβ)) [2]	melting point	Binding ERβ [2]	Binding ERα [3]	Molecule
++ (between 4-10%)	++ (between 10-30)	+++ (>10%)	–	–	–	Oc1ccc2c(c1)Cc1c-2cc2ccc(O)cc2c1C(F)(F)F [Compound 67e, 2,8-dihydroxy-10-trifluoromethyl-11H-benzo[b]fluorene]
+ (between 0.1-4%)	++ (between 10-30)	–	–	–	–	CCCC(=O)Oc1ccc2c(c1)Cc1c-2nc2ccc(OC(=O)CCC)cc2c1Br [Compound 2d, Dibutyryl Ester of 10-bromo-2,8-dihydroxy-11H-indeno[1,2-b]quinoline]
+ (between 0.1-4%)	++ (between 10-30)	++ (between 2-10%)	265 °C	–	–	Cc1c2c(cc3ccc(O)cc13)-c1ccc(O)cc1C2 [Compound 67d, 2,8-dihydroxy-10-methyl-11H-benzo[b]fluorene]
–	–	–	255 °C (dec.)	–	–	CCc1c2c(c(CC)c3ccc(O)cc13)-c1ccc(O)cc1C2 [Compound 47, 2,8-dihydroxy-5,10-diethyl-11H-benzo[b]fluorene]
–	–	–	223 to 224 °C	–	–	CCCc1c2c(c(Cl)c3ccc(O)cc13)-c1ccc(O)cc1C2 [Compound 22, 2,8-dihydroxy-5-chloro-10-propyl-11H-benzo[b]fluorene]
–	–	–	250 °C	–	–	CCCc1c2c(c(CCC)c3ccc(O)cc13)-c1ccc(O)cc1C2 [Compound 57, 2,8-dihydroxy-5,10-dipropyl-11H-benzo[b]fluorene]
+++ (>10%)	+++ (>30)	+++ (>10%)	–	++++ (>8%)	++ (between 1.5-3.5%)	Oc1ccc2c(c1)Cc1cc3cc(O)ccc3c(Cl)c1-2 [Compound 60, 2,8-dihydroxy-5-chloro-11H-benzo[b]fluorene]
++ (between 4-10%)	++ (between 10-30)	–	–	–	–	CCCC(=O)Oc1ccc2c(c1)Cc1c-2nc2ccc(OC(=O)CCC)cc2c1Cl [Compound 2c, Dibutyryl Ester of 10-chloro-2,8-dihydroxy-1H-indeno[1,2-b]quinoline]
–	–	–	272 °C	–	–	Oc1ccc(-c2c3c(cc4ccc(O)cc24)-c2ccc(O)cc2CC3)cc1 [Compound 16a, 3,9-dihydroxy-7-(4-hydroxyphenyl)-5,6-dihydro-benz[a]anthracene]
–	–	–	215 to 220 °C	–	–	CC1c2cc(O)ccc2-c2c1cc1cc(O)ccc1c2Cl (stereo not drawn) [Compound 54, 2,8-dihydroxy-5-chloro-11-methyl-11H-benzo[b]fluorene]
− (<0.1%)	–	++ (between 2-10%)	–	–	–	Oc1ccc2c(c1)Cc1c-2nc2ccc(O)cc2c1-c1ccccc1 [Compound 5, 10-phenyl-2,8-dihydroxy-11H-indeno[1,2-b]quinoline]
+++ (>10%)	+++ (>30)	+++ (>10%)	–	–	–	Oc1ccc2c(c1)Cc1c-2cc2ccc(O)cc2c1Cl [Compound 67a, 2,8-dihydroxy-10-chloro-11H-benzo[b]fluorene]
+ (between 0.1-4%)	+ (between 3.5-10)	++ (between 2-10%)	–	–	–	Oc1ccc2c(c1)Cc1cc3cc(O)ccc3cc1-2 [Compound 69, 2,8-dihydroxy-11H-benzo[b]fluorene]
–	–	–	–	–	+++ (between 3.5-8%)	10-chloro-1,1-dimethyl-2,8-dihydroxy-11H-indeno[1,2-b]quinoline [Compound 7d]
+ (between 0.1-4%)	++ (between 10-30)	++ (between 2-10%)	–	–	–	COc1ccc2c(c1)Cc1c-2nc2ccc(OC)cc2c1Br [Compound 2b, 10-bromo-2,8-dimethoxy-11H-indeno[1,2-b]quinoline]
+ (between 0.1-4%)	− (<3.5)	++ (between 2-10%)	–	–	–	Oc1ccc2c(c1)Cc1cc3ccc(O)cc3cc1-2 [Compound 25, 2,7-dihydroxy-11H-benzo[b]fluorene]
–	–	–	233 to 235 °C	–	–	Oc1ccc2c(c1)CCc1c-2cc2ccc(O)cc2c1C1CCCC1 [Compound 16, 3,9-dihydroxy-7-cyclopentyl-5,6-dihydro-benz[a]anthracene]
–	–	–	–	++ (between 1.5-3.5%)	++ (between 1.5-3.5%)	Oc1ccc2nc3c(c(Cl)c2c1)-c1cccc(O)c1CC3 [Compound 8, 12-chloro-4,10-dihydroxy-5,6-dihydro-benz[a]acridine]
–	–	–	–	++ (between 1.5-3.5%)	+ (between 0.1-1.5%)	Cc1c(O)ccc2c1Cc1c-2nc2ccc(O)cc2c1Cl [Compound 7c, 10-chloro-1-methyl-2,8-dihydroxy-11H-indeno[1,2-b]quinoline]
–	–	–	211 to 212 °C	–	–	Oc1ccc2c(c1)Cc1c-2cc2ccc(O)cc2c1C=C(F)F [Compound 50, 2,8-dihydroxy-10-(2,2-difluoro-ethenyl)-11H-benzo[b]fluorene]
++ (between 4-10%)	+ (between 3.5-10)	++ (between 2-10%)	–	–	–	COc1ccc2c(c1)Cc1c-2nc2ccc(OC)cc2c1Cl [Compound 2a, 10-chloro-2,8-dimethoxy-11H-indeno[1,2-b]quinoline]
+++ (>10%)	+++ (>30)	+++ (>10%)	–	–	–	Oc1ccc2c(c1)Cc1c-2cc2ccc(O)cc2c1I [Compound 67c, 2,8-dihydroxy-10-iodo-11H-benzo[b]fluorene]
+++ (>10%)	+++ (>30)	+++ (>10%)	–	–	–	Oc1ccc2c(c1)Cc1c-2cc2ccc(O)cc2c1Br [Compound 67b, 2,8-dihydroxy-10-bromo-11H-benzo[b]fluorene]
–	–	–	–	+++ (between 3.5-8%)	− (<0.3%)	Oc1ccc2c(c1)Cc1c-2nc2ccc(O)cc2c1Cl [Compound 7a, 10-chloro-2,8-dihydroxy-11H-indenol[1,2-b]quinoline]
–	–	–	–	++ (between 1.5-3.5%)	− (<0.3%)	Oc1ccc2c(c1)Cc1c-2nc2ccc(O)cc2c1Br [Compound 7b, 10-bromo-2,8-dihydroxy-11H-indeno[1,2-b]quinoline]
–	–	–	250 to 251 °C	–	–	CCc1c2c(c(Cl)c3ccc(O)cc13)-c1ccc(O)cc1C2 [Compound 40, 2,8-dihydroxy-5-chloro-10-ethyl-11H-benzo[b]fluorene]
–	–	–	–	++++ (>8%)	++++ (>8%)	Oc1ccc2c(c1)CCc1c-2nc2ccc(O)cc2c1Cl [Compound 10, 7-chloro-3,9-dihydroxy-5,6-dihydro-benz[c]acridine]

Molecule	ERβ Transactivation (Potency Transactivation (ERβ)) [1]	β/α ratio Transactivation [1]	ERβ Binding (Potency Binding (ERβ)) [2]	melting point	Binding ERβ [2]	Binding ERα [3]
CC(C)(C)C(=O)Oc1ccc2c(c1)Cc1c-2cc2ccc(OC(=O)C(C)(C)C)cc2c1Cl [Compound 68a, di-pivaloyl Ester of 2,8-dihydroxy-10-chloro-11H-benzo[b]fluorene]	++ (between 4-10%)	+++ (>30)	–	–	–	–
